Test system: immune cell subsets in PBMC cultures from HIV-1 infected subjects on cART
Assay: Induced immune cell activation in PBMC cultures from HIV-1 infected subjects on cART (flow cytometry)
Format: cell-based, human
Conditions: for B Cells CD69 % / B Cells CD69 Fold vs DMSO / B Cells CD80 % / B Cells CD80 Fold vs DMSO / DCs CD69 % / DCs CD69 Fold vs DMSO / DCs CD80 % / DCs CD80 Fold vs DMSO / CD4+ T Cells CD25 % / CD4+ T Cells CD25 Fold vs DMSO / CD4+ T Cells CD69 % / CD4+ T Cells CD69 Fold vs DMSO / CD4+ T Cells Perforin % / CD4+ T Cells Perforin Fold vs DMSO / CD8+ T Cells CD25 % / CD8+ T Cells CD25 Fold vs DMSO / CD8+ T Cells CD28 % / CD8+ T Cells CD28 Fold vs DMSO / CD8+ T Cells CD38 % / CD8+ T Cells CD38 Fold vs DMSO / CD8+ T Cells CD69 % / CD8+ T Cells CD69 Fold vs DMSO / Monocytes CD11c % / Monocytes CD11c Fold vs DMSO / Monocytes CD69 % / Monocytes CD69 Fold vs DMSO / Monocytes CD80 % / Monocytes CD80 Fold vs DMSO / NK Cells CD25 % / NK Cells CD25 Fold vs DMSO / NK Cells CD69 % / NK Cells CD69 Fold vs DMSO: 2 days, geometric mean; for B Cells CD69 % / B Cells CD69 Fold vs DMSO / B Cells CD80 % / B Cells CD80 Fold vs DMSO / DCs CD69 % / DCs CD69 Fold vs DMSO / DCs CD80 % / DCs CD80 Fold vs DMSO: N = 4; for CD4+ T Cells CD25 % / CD4+ T Cells CD25 Fold vs DMSO / CD4+ T Cells CD69 % / CD4+ T Cells CD69 Fold vs DMSO / CD4+ T Cells Perforin % / CD4+ T Cells Perforin Fold vs DMSO / CD8+ T Cells CD25 % / CD8+ T Cells CD25 Fold vs DMSO / CD8+ T Cells CD28 % / CD8+ T Cells CD28 Fold vs DMSO / CD8+ T Cells CD38 % / CD8+ T Cells CD38 Fold vs DMSO / CD8+ T Cells CD69 % / CD8+ T Cells CD69 Fold vs DMSO / Monocytes CD11c % / Monocytes CD11c Fold vs DMSO / Monocytes CD69 % / Monocytes CD69 Fold vs DMSO / Monocytes CD80 % / Monocytes CD80 Fold vs DMSO / NK Cells CD25 % / NK Cells CD25 Fold vs DMSO / NK Cells CD69 % / NK Cells CD69 Fold vs DMSO: N = 6
Protocol: TLR8 modulating compound affects activation of distinct cell populations, PBMCs were purified from HIV-1 infected subjects on cART, as described in Example 121 (anonymized participant IDs 184, 185, 188, 189, 190, and 191). […] After incubation, PBMCs were harvested and stained with antibodies conjugated to specific fluorophores (BD Biosciences) to delineate immune cell subsets: CD4 T cells (CD3+ CD4+ CD8-), CD8 T cells (CD3+ CD8+ CD4-), NK cells (CD3-CD56+ CD16+), monocytes (CD3-CD14+), B cells (CD3-CD19+), and peripheral dendritic cells (DCs), defined as positive for HLA-DR and negative for a panel of markers: CD3, CD14, CD16, CD19, CD20, CD56 (Lin-1 lineage panel, BD Biosciences).
Additional markers of activation, maturation, and effector function were included for cell subsets, as follows: CD4 and CD8 T cells (CD25, CD38, CD69, IFN-γ, granzyme B, perforin, TNF-α), NK cells (CD25, CD69, IFN-γ), monocytes (CD11c, CD16, CD80, CD86, CD163, TNF-α), B cells (CD40, CD69, CD80, CD86), and DC (CD11c, CD69, CD80, CD86, CD123, and CD163). Cells were stained for surface markers (CD3, CD4, CD8, CD11c, CD14, CD16, CD25, CD69, CD80, CD86, CD163), washed, treated with fixation and permeabilization buffer (eBioscience), and stained for intracellular markers (IFN-γ, granzyme B, perforin, TNF-α). Cells were evaluated by flow cytometry on a LSR Fortessa (BD Biosciences), and data was analyzed with FlowJo software (TreeStar).
Data are expressed as geometric mean percentage (%) and as geometric mean fold-activation (Fold) for each marker and for each PBMC subset obtained from 4 or 6 subjects, as indicated. Fold activation is calculated as a ratio of the % positive for each marker for each PBMC subset at the indicated concentration of the compound of Example 15 relative to % positive for DMSO treated samples. Fold activations that are 1.5 are in bold.

CCCC[C@H](CO)Nc1nc(N)nc2cccnc12 [Example 15]
B Cells CD69 % (Example 15 1000 nM): 9.1% | B Cells CD69 Fold vs DMSO (Example 15 1000 nM): 1.1 fold | B Cells CD80 % (Example 15 1000 nM): 2.2% | B Cells CD80 Fold vs DMSO (Example 15 1000 nM): 1.4 fold | DCs CD69 % (Example 15 1000 nM): 8.5% | DCs CD69 Fold vs DMSO (Example 15 1000 nM): 3.3 fold | DCs CD80 % (Example 15 1000 nM): 82.0% | DCs CD80 Fold vs DMSO (Example 15 1000 nM): 2.9 fold | CD4+ T Cells CD25 % (Example 15 1000 nM): 4.2% | CD4+ T Cells CD25 Fold vs DMSO (Example 15 1000 nM): 1.8 fold | CD4+ T Cells CD69 % (Example 15 1000 nM): 11.7% | CD4+ T Cells CD69 Fold vs DMSO (Example 15 1000 nM): 1.5 fold | CD4+ T Cells Perforin % (Example 15 1000 nM): 14.2% | CD4+ T Cells Perforin Fold vs DMSO (Example 15 1000 nM): 1.8 fold | CD8+ T Cells CD25 % (Example 15 1000 nM): 0.7% | CD8+ T Cells CD25 Fold vs DMSO (Example 15 1000 nM): 2.2 fold | CD8+ T Cells CD28 % (Example 15 1000 nM): 0.4% | CD8+ T Cells CD28 Fold vs DMSO (Example 15 1000 nM): 4.4 fold | CD8+ T Cells CD38 % (Example 15 1000 nM): 56.8% | CD8+ T Cells CD38 Fold vs DMSO (Example 15 1000 nM): 2.0 fold | CD8+ T Cells CD69 % (Example 15 1000 nM): 10.4% | CD8+ T Cells CD69 Fold vs DMSO (Example 15 1000 nM): 2.2 fold | Monocytes CD11c % (Example 15 1000 nM): 1.2% | Monocytes CD11c Fold vs DMSO (Example 15 1000 nM): 1.6 fold | Monocytes CD69 % (Example 15 1000 nM): 6.2% | Monocytes CD69 Fold vs DMSO (Example 15 1000 nM): 2.0 fold | Monocytes CD80 % (Example 15 1000 nM): 86.4% | Monocytes CD80 Fold vs DMSO (Example 15 1000 nM): 3.0 fold | NK Cells CD25 % (Example 15 1000 nM): 5.2% | NK Cells CD25 Fold vs DMSO (Example 15 1000 nM): 10.4 fold | NK Cells CD69 % (Example 15 1000 nM): 21.1% | NK Cells CD69 Fold vs DMSO (Example 15 1000 nM): 12.4 fold | B Cells CD69 % (Example 15 3000 nM): 13.6% | B Cells CD69 Fold vs DMSO (Example 15 3000 nM): 1.7 fold | B Cells CD80 % (Example 15 3000 nM): 3.0% | B Cells CD80 Fold vs DMSO (Example 15 3000 nM): 1.9 fold | DCs CD69 % (Example 15 3000 nM): 23.2% | DCs CD69 Fold vs DMSO (Example 15 3000 nM): 8.9 fold | DCs CD80 % (Example 15 3000 nM): 57.1% | DCs CD80 Fold vs DMSO (Example 15 3000 nM): 2.0 fold | CD4+ T Cells CD25 % (Example 15 3000 nM): 3.0% | CD4+ T Cells CD25 Fold vs DMSO (Example 15 3000 nM): 1.3 fold | CD4+ T Cells CD69 % (Example 15 3000 nM): 13.1% | CD4+ T Cells CD69 Fold vs DMSO (Example 15 3000 nM): 1.7 fold | CD4+ T Cells Perforin % (Example 15 3000 nM): 17.0% | CD4+ T Cells Perforin Fold vs DMSO (Example 15 3000 nM): 2.1 fold | CD8+ T Cells CD25 % (Example 15 3000 nM): 0.9% | CD8+ T Cells CD25 Fold vs DMSO (Example 15 3000 nM): 3.0 fold | CD8+ T Cells CD28 % (Example 15 3000 nM): 0.5% | CD8+ T Cells CD28 Fold vs DMSO (Example 15 3000 nM): 4.7 fold | CD8+ T Cells CD38 % (Example 15 3000 nM): 56.8% | CD8+ T Cells CD38 Fold vs DMSO (Example 15 3000 nM): 2.0 fold | CD8+ T Cells CD69 % (Example 15 3000 nM): 11.6% | CD8+ T Cells CD69 Fold vs DMSO (Example 15 3000 nM): 2.5 fold | Monocytes CD11c % (Example 15 3000 nM): 1.5% | Monocytes CD11c Fold vs DMSO (Example 15 3000 nM): 2.1 fold | Monocytes CD69 % (Example 15 3000 nM): 7.9% | Monocytes CD69 Fold vs DMSO (Example 15 3000 nM): 2.6 fold | Monocytes CD80 % (Example 15 3000 nM): 77.4% | Monocytes CD80 Fold vs DMSO (Example 15 3000 nM): 2.7 fold | NK Cells CD25 % (Example 15 3000 nM): 4.8% | NK Cells CD25 Fold vs DMSO (Example 15 3000 nM): 9.6 fold | NK Cells CD69 % (Example 15 3000 nM): 20.1% | NK Cells CD69 Fold vs DMSO (Example 15 3000 nM): 11.8 fold | Concentrations of maximal activation of NK cells (increased expression of CD25 and CD69): 1000 nM | Concentrations of maximal activation of B cells (increased expression of CD69 and CD80): 3000 nM

Reference: US20170071944A1, “MODULATORS OF TOLL-LIKE RECEPTORS FOR THE TREATMENT OF HIV” (Gilead Sciences, Inc., priority 2015, published 2017)
